Series [1] deals with Hypoxia-inducible factor 1-alpha (Homo sapiens, UniProt Q16665). Kind of series: Binding affinity to HIF-1alpha (unknown origin) assessed as dissociation constant.
For series [2], the system named is Human immunodeficiency virus 1. The series is described as follows: Antiviral activity against HIV-1 IIIB infected in human MT2 cells incubated overnight by ELISA method. Conditions: Human immunodeficiency virus 1, MT2. Type of series: functional, organism-based. (In general: ELISA stands for enzyme-linked immunosorbent assay.)
The nature of series [3]: Cytotoxicity against human MT2 cells. In kind it is toxicity, cell-based.

Here are results for five compounds from ChEMBL document CHEMBL5634207, “Helical sulfonyl-γ-AApeptides for the inhibition of HIV-1 fusion and HIF-1α signaling” (RSC Med Chem, 2024).

By Kd is commonly meant a measure of binding affinity in units of concentration. What is called IC50 is the concentration needed to halve the response being measured. For orientation: CC50 means the concentration that lowers cell viability or growth by half. Read a low CC50 as harm at low concentration.

Hypoxia-inducible factor 1-alpha, sequence (Q16665 whole entry): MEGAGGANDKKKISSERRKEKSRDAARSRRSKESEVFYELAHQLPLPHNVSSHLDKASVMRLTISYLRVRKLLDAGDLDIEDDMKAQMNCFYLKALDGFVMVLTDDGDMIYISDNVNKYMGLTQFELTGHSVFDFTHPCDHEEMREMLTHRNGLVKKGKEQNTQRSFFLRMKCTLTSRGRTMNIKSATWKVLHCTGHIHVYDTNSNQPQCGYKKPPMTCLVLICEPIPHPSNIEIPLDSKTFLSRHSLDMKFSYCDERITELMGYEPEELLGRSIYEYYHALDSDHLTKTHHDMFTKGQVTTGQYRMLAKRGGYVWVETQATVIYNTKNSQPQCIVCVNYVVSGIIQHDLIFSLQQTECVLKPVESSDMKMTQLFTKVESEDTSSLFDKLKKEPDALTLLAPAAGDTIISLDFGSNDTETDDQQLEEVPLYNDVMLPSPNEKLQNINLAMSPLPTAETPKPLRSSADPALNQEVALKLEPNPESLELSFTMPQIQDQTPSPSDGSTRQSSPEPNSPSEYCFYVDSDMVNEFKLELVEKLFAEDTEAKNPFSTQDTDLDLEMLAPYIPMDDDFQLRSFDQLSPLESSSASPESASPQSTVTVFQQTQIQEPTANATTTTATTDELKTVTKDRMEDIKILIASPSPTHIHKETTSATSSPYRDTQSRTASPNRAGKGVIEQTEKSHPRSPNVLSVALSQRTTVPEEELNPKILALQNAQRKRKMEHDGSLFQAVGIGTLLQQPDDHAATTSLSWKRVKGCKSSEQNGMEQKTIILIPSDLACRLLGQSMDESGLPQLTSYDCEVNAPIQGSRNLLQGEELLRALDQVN

For the compound `CC(=O)N[C@@H](CC(C)C)CN(CC(=O)N[C@@H](CCC(=O)O)CN(CC(=O)N[C@@H](CC(C)C)CN(CC(=O)N[C@@H](CCCCN)CN(CC(=O)N[C@@H](CC(C)C)CN(CC(N)=O)S(=O)(=O)CCN)S(C)(=O)=O)S(C)(=O)=O)S(=O)(=O)CC(C)C)S(C)(=O)=O`, in series [1], the dissociation constant Kd is 97 nM.

On to Ac-EELLRALDQV-OH, for which, in series [1], the Kd was above 10000 nM.

In the case of `CC(=O)N[C@@H](CCC(=O)O)CN(CC(=O)N[C@@H](CC(C)C)CN(CC(=O)N[C@@H](C)CN(CC(=O)N[C@@H](CCC(=O)O)CN(CC(=O)N[C@@H](CC(C)C)CN(CC(N)=O)S(=O)(=O)CC(C)C)S(C)(=O)=O)S(=O)(=O)CC(C)C)S(=O)(=O)CCN)S(=O)(=O)CC(C)C`, in series [1], the dissociation constant Kd was found to be 489 nM.

For the compound `CC(=O)N[C@@H](CCC(=O)O)C(=O)N[C@@H](CC(C)C)CN(CC(=O)N[C@@H](CC(C)C)CN(CC(=O)N[C@@H](CC(C)C)CN(CC(=O)N[C@@H](C)CN(CC(=O)N[C@@H](C)CN(CC(=O)N[C@@H](CCC(N)=O)C(N)=O)S(=O)(=O)CC(C)C)S(C)(=O)=O)S(=O)(=O)CC(C)C)S(=O)(=O)CCN)S(=O)(=O)CC(C)C`, in series [1], the Kd was 514 nM.

Compound enfuvirtide returned an IC50 in series [2] of 36 nM. The compound also yielded a 50% cytotoxic concentration (CC50) in series [3] above 100000 nM.
